Assay results reported in patent US20210401833A1 (IMBRIA PHARMACEUTICALS, INC., priority 2020, published 2021).
In brackets after ≈: the same amount, converted by molar mass. Where two headings read alike, the source gives them in different places.

How the values were obtained:
[1] = aqueous solubility of CV-8972; format: physicochemical; settings: aqueous solution, aqueous buffer
Text: FIG. 2 is graph of the aqueous solubility of CV-8972 as a function of pH generated via dynamic methods due to instability.

[2] = pH stability profile of a 1 mg/mL solution of CV-8972 at 23° C.; format: physicochemical; settings: for 1st order Kobs / % lost in 25 hrs / Amt. remaining / T5% / T10%: 1 mg/mL, 23° C.
Procedure: The pH stability profile is summarized and shown in Table 2 for a 1 mg/mL solution of CV-8972 at 23° C.
The hydrolysis proceeds via the first step shown in FIG. 1, as Nicotinic acid and CV-8814 are the only decomposition products generated. The optimal pH for solution stability appears to be around pH 5-5.1 for a 1 mg/mL solution with acid-catalyzed hydrolysis increasing at pH values less than 5.0 and base-catalyzed hydrolysis increasing above pH 5.0.

[3] = solution stability (decomposition kinetics) in simulated GI media at 37° C. and 0.2 mg/mL, HPLC; format: physicochemical
Procedure: The solution stability of CV-8972 was evaluated in multiple media currently used to simulate dissolution and stability conditions in the various sections of the GI tract. As CV-8972 will be subject to hydrolysis as it is dissolving in the GI tract, it will be important to understand these kinetics in terms of designing instant and controlled-release formulations. HPLC methods were used to perform these assessments.
In summary, there may be some protective effect of the components of the FaSSGF, FaSSIF, and FeSSIF, particularly when compared to stability in 0.1N HCl or bicarbonate or phosphate buffer at pH 6-8. On the positive side, the fastest decomposition rate still has a T1/2 of 1.5 hours which should provide enough residence time for release and absorption in the upper GI tract.

[4] = in vitro CaCo2 permeability; format: in vitro ADME; settings: human, Caco-2
CaCo2 = assay: in vitro CaCo2 permeability; format: in vitro ADME
[5] = Phase 1 first-in-human study, single-dose MR part, safety and tolerability; format: in vivo
Procedure: The subjects received a single oral dose of 1 of 4 MR formulations of IMB-1018972 under fasted conditions (an overnight fast of at least 10 hours) on Days 1, 4, 7, and 10 in a fixed order that was the same for all subjects. The MR formulation of IMB-1018972 to be administered on Day 13 under fed conditions was 1 of the 4 MR formulations administered on Days 1, 4, 7, and 10 under fasted conditions.
(§1) AEs were recorded from (first) admission until completion of the follow-up visit. Any clinically significant observations in results of clinical laboratory, 12-lead ECGs, vital signs, or physical examinations were recorded as AEs.
(§2) A treatment-emergent AE (TEAE) was defined as any event not present prior to (the first) administration of the study drug or any event already present that worsened in either severity or frequency following exposure to the study drug.
(§3) The severity of the AEs was rated as mild, moderate, or severe; the relationship between the AEs and the study drug was indicated as none, unlikely, possibly, likely, or definitely. Adverse events assessed as possibly, likely, or definitely were considered related to the study drug; AEs assessed as none or unlikely were considered not related to the study drug.

[6] = Phase 1 first-in-human study, multiple-dose MR part, safety and tolerability; format: in vivo
Procedure: as §1, §2, §3

[7] = 28-day dog study (nonclinical toxicology, NOAEL); format: in vivo; settings: for AUC(0-t): po, 200 mg/kg/day
Procedure: Based on the nonclinical toxicology data, it was considered that subjects in this clinical study were not at unreasonable risk of adverse effects. […] For a 60-kg individual, the NOAEL dose would be 6480 mg. With a 10-fold safety factor applied, this would allow for a maximum recommended starting dose (MRSD) of 648 mg/day. 7,8 The planned starting dose in the current Phase 1 study was 50 mg, equivalent to 0.83 mg/kg/day for a 60-kg subject. This starting dose is less than 10% of the MRSD determined from the dog NOAEL and less than 1% of the dog NOAEL
The relevant animal study was the 28-day dog study where the NOAEL for IMB-1018972 was 200 mg/kg/day.

[8] = Phase 1 first-in-human study, overall safety; format: in vivo; settings: after administration as the MR formulations
Procedure: Safety and tolerability were assessed through AEs, clinical laboratory, vital signs, ECGs, continuous cardiac monitoring (telemetry), and physical examination findings, and any other parameter that was relevant for safety assessment.

[9] = in vitro stability in biological media across species; format: in vitro ADME
Text: Additional and extensive in vitro stability work has been carried out across species to evaluate the impact of GI tract, liver tissues, and plasma on half-life as measured by in vitro clearance of CV-8972 in various biological media.

[10] = Phase 1 first-in-human study, combined single and multiple IMB-1018972 dose results (SAD, MAD, FE, MR), plasma and urine PK; settings: plasma of subjects that received IMB-1018972
Text: (§4) Data on the performance of the method and stability indicate that the sample results as reported are reliable.

clinical = settings: human, in vivo; for AUC0-t higher after the 8-hour MR formulation than after the 4-hour MR formulation / AUC0-t lower after the 8-hour MR formulation than after the 4-hour MR formulation / Tmax: po
Text: The blood samples were taken via an indwelling intravenous catheter or by direct venipuncture.
The effect of food on the relative oral bioavailability of IMB-1018972 following a single oral administration was explored. This occurred in the single-dose MR part where subjects received the same dose, first under fasted conditions and then under fed conditions.

[11] = human, in vivo, 150 mg
Text: as §4

COc1ccc(CN2CCN(CCOC(=O)c3cccnc3)CC2)c(OC)c1OC [CV-8972, 2-[4-[(2,3,4-trimethoxyphenyl)methyl]piperazin-1-yl]ethyl pyridine-3-carboxylate]
solubility ([1]; free base, read-out: saturated base solubility / minimal solubility as the free base): 5000 to 10000 µg/mL (≈ 12 to 24.1 mM)
solubility ([1]; salt, read-out: solubility as the salt): > 100000 µg/mL
optimal pH for solution stability ([2]; 1 mg/mL solution): 5-5.1
1st order Kobs ([2]; pH 2.74, Water): 0.00516 h⁻¹
% lost in 25 hrs ([2]; pH 2.74, Water): 12.1%
Amt. remaining ([2]; pH 2.74, Water): 0.879 mg/mL
T5% ([2]; pH 2.74, Water): 9.9 h
T10% ([2]; pH 2.74, Water): 20.4 h
1st order Kobs ([2]; pH 3.52, 20 mM Phos): 0.00273 h⁻¹
% lost in 25 hrs ([2]; pH 3.52, 20 mM Phos): 6.6%
Amt. remaining ([2]; pH 3.52, 20 mM Phos): 0.934 mg/mL
T5% ([2]; pH 3.52, 20 mM Phos): 18.8 h
T10% ([2]; pH 3.52, 20 mM Phos): 38.6 h
1st order Kobs ([2]; pH 5.05, 20 mM Am. Acetate): 0.00105 h⁻¹
% lost in 25 hrs ([2]; pH 5.05, 20 mM Am. Acetate): 2.6%
Amt. remaining ([2]; pH 5.05, 20 mM Am. Acetate): 0.974 mg/mL
T5% ([2]; pH 5.05, 20 mM Am. Acetate): 48.7 h
T10% ([2]; pH 5.05, 20 mM Am. Acetate): 100.0 h
1st order Kobs ([2]; pH 5.64, 20 mM Phos): 0.00248 h⁻¹
% lost in 25 hrs ([2]; pH 5.64, 20 mM Phos): 6.0%
Amt. remaining ([2]; pH 5.64, 20 mM Phos): 0.94 mg/mL
T5% ([2]; pH 5.64, 20 mM Phos): 20.7 h
T10% ([2]; pH 5.64, 20 mM Phos): 42.6 h
1st order Kobs ([2]; pH 6.5, 20 mM Phos): 0.01119 h⁻¹
% lost in 25 hrs ([2]; pH 6.5, 20 mM Phos): 24.4%
Amt. remaining ([2]; pH 6.5, 20 mM Phos): 0.756 mg/mL
T5% ([2]; pH 6.5, 20 mM Phos): 4.6 h
T10% ([2]; pH 6.5, 20 mM Phos): 9.4 h
1st order Kobs ([2]; pH 6.88, 20 mM Phos): 0.02064 h⁻¹
% lost in 25 hrs ([2]; pH 6.88, 20 mM Phos): 40.3%
Amt. remaining ([2]; pH 6.88, 20 mM Phos): 0.597 mg/mL
T5% ([2]; pH 6.88, 20 mM Phos): 2.5 h
T10% ([2]; pH 6.88, 20 mM Phos): 5.1 h
Est Kobs (first order rate constant for hydrolysis) ([3]; 0.1 M HCl, pH 1.0, no surfactants): 0.221 h⁻¹
Est Kobs (first order rate constant for hydrolysis) ([3]; BiCarb adj (0.1 M HCl neutralized with sodium bicarbonate), pH 6-8.2, no surfactants): 0.456 h⁻¹
Est Kobs (first order rate constant for hydrolysis) ([3]; FaSSGF, pH 1.6): 0.0143 h⁻¹
Est Kobs (first order rate constant for hydrolysis) ([3]; FaSSIF, pH 6.5): 0.05124 h⁻¹
Est Kobs (first order rate constant for hydrolysis) ([3]; FeSSIF, pH 5.8): 0.00696 h⁻¹
half-life at 0.2 mg/mL ([3]; bicarbonate-adjusted medium (BiCarb adj), BiCarb adj, pH 6-8.2 (fastest decomposition rate)): 1.5 h
Papp [4]: ~29 ×10⁻⁶ cm/s
efflux (CaCo2): little evidence of efflux
TEAEs of flushing [5]: No TEAEs of flushing were reported
difference between fasted and fed administration for the number and incidence of TEAEs [5]: no clear difference
dose or dissolution time dependency of the number and incidence of TEAEs [5]: no apparent dose or dissolution time dependency
number of TEAEs considered not related to the study drug [5]: 30
number of TEAEs considered related to the study drug [5]: 7
number of TEAEs, SOC Gastrointestinal disorders [5]: 5
number of TEAEs, SOC General disorders and administration site conditions [5]: 11
number of TEAEs, SOC Nervous system disorders [5]: 8
number of drug-related TEAEs of ALT increased [5]: 1
number of drug-related TEAEs of headache [5]: 1
number of drug-related TEAEs of pollakiuria [5]: 5
severe TEAEs [5]: No severe TEAEs were reported
subjects n (%) with drug-related pollakiuria [5]: 2 (16.7%)
subjects n (%), SOC Gastrointestinal disorders [5]: 4 (33.3%)
subjects n (%), SOC General disorders and administration site conditions [5]: 7 (58.3%)
subjects n (%), SOC Nervous system disorders [5]: 7 (58.3%)
total number of TEAEs ([5]; all treatments): 37
number of TEAEs considered not related to the study drug [6]: 30
number of TEAEs considered related to the study drug [6]: 10
number of TEAEs, SOC Gastrointestinal disorders [6]: 9
number of TEAEs, SOC General disorders and administration site conditions [6]: 4
number of TEAEs, SOC Musculoskeletal and connective tissue disorders [6]: 4
number of TEAEs, SOC Nervous system disorders [6]: 9
number of TEAEs, SOC Renal and urinary disorders (pollakiuria) [6]: 4
number of drug-related TEAEs of pollakiuria [6]: 4
number of drug-related TEAEs, Nervous system disorders [6]: 2
severity of TEAEs [6]: All TEAEs were of mild severity
subjects n (%) with drug-related Nervous system disorders [6]: 2 (16.7%)
subjects n (%) with drug-related pollakiuria [6]: 4 (33.3%)
subjects n (%), SOC Gastrointestinal disorders [6]: 5 (41.7%)
subjects n (%), SOC General disorders and administration site conditions [6]: 4 (33.3%)
subjects n (%), SOC Musculoskeletal and connective tissue disorders [6]: 4 (33.3%)
subjects n (%), SOC Nervous system disorders [6]: 7 (58.3%)
subjects n (%), SOC Renal and urinary disorders (pollakiuria) [6]: 4 (33.3%)
total number of TEAEs [6]: 40
subjects reporting flushing ([6]; mild severity): 2 (16.7%)
number of TEAEs of flushing ([6]; mild severity, drug-related): 2
NOAEL at 28 days ([7]; dog, in vivo): 108 mg/kg/day
maximum recommended starting dose (MRSD) ([7]; dog, in vivo, 28 days): 648 mg/day
NOAEL dose for a 60-kg individual ([7]; from HED): 6480 mg
NOAEL at 28 days ([7]; in vivo, 28-day dog, oral, read-out: no observed adverse effect level (NOAEL)): 200 mg/kg/day
hemodynamic changes and changes in the QTc-interval [8]: no findings of hemodynamic changes, nor changes in the QTc-interval
stability in GI tract, liver tissues and plasma (in vitro clearance) [9]: relatively unstable in the GI tract
IMB-1018972 in plasma samples [10]: could be measured in only few plasma samples

COc1ccc(CN2CCNCC2)c(OC)c1OC [trimetazidine, reference compound]
half-life (clinical): 8.11 to 9.35 h
AUC0-t higher after the 8-hour MR formulation than after the 4-hour MR formulation (clinical): 4%
AUC0-t lower after the 8-hour MR formulation than after the 4-hour MR formulation (clinical): 12%
Tmax (clinical; 50 mg): 8 h
Tmax (clinical; 200 mg): 5 h
AUC(0-t) ([7]; female, dog, in vivo): 13.8 µg·h/mL
AUC(0-t) ([7]; male, dog, in vivo): 15 µg·h/mL

COc1ccc(CN2CCN(CCO)CC2)c(OC)c1OC [CV-8814, 2-[4-[(2,3,4-trimethoxyphenyl)methyl]piperazin-1-yl]ethanol]
half-life (clinical): 3.35 to 4.27 h
Cmax higher under fed conditions relative to fasted conditions (clinical; 200 mg): approximately 42%
AUC0-t higher after the 8-hour MR formulation than after the 4-hour MR formulation (clinical): 6%
AUC0-t lower after the 8-hour MR formulation than after the 4-hour MR formulation (clinical): 26%
Tmax (clinical; 200 mg): 2 h
AUC(0-t) ([7]; female, dog, in vivo): 653 µg·h/mL
AUC(0-t) ([7]; male, dog, in vivo): 418 µg·h/mL
Cmax lower under fed conditions relative to fasted conditions [11]: approximately 36%
